Data: PMC10588032 (Journal of the American Chemical Society, 2023)
One block for each molecule: values may come before it. *1 amine or outer side, *2 acyl side, *3 side chain or, on linkers, in order; H or OH if unused. Where a SMILES comes first, the peptide text is derived from it. [ ]: non-standard residue; d: D form. X1 = CC(C)C[C@@H](CCC(=O)[*:2])N[*:1]; β3hN = NC(=O)C[C@H](N)CC(=O)O

Legend:
[1] = biological target: NLuc-PTHR1 (UniProt Q03431)
[2] = biological target: NLuc-PTHR1 (UniProt Q03431); assay: FRET or BRET
[3] = biological target: T1, PTHR1 (Homo sapiens, UniProt Q03431); assay: PTHR1 activation via cAMP production; assay type: cell-based
T1 sequence (Q03431 27-593): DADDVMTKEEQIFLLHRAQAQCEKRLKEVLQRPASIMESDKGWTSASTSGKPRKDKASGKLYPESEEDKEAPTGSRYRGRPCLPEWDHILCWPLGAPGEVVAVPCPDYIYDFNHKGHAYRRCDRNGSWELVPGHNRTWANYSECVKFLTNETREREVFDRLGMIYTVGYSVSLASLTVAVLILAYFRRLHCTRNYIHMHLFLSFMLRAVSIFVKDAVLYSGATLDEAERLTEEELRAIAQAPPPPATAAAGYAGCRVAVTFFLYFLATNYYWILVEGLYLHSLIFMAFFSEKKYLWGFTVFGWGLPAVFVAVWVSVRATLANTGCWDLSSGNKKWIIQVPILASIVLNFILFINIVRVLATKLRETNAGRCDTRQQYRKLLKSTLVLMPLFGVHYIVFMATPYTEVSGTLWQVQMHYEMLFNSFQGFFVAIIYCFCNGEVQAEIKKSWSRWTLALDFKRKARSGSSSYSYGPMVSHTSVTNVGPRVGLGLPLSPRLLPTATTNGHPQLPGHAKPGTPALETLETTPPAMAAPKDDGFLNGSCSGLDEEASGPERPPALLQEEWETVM

[4] = biological target: PTHR2 (Homo sapiens, UniProt P49190); assay: PTHR2 activation via cAMP production; assay type: cell-based
[5] = biological target: T1, PTHR1; assay: β-arrestin-1 recruitment to the PTHR1; assay type: cell-based
[6] = biological target: T1, PTHR1; assay: β-arrestin-2 recruitment to the PTHR1; assay type: cell-based
[7] = biological target: T2, NLuc-PTHR1 (Homo sapiens, UniProt Q03431); assay: NLuc-PTHR1 competition binding
T2 sequence (Q03431 27-593): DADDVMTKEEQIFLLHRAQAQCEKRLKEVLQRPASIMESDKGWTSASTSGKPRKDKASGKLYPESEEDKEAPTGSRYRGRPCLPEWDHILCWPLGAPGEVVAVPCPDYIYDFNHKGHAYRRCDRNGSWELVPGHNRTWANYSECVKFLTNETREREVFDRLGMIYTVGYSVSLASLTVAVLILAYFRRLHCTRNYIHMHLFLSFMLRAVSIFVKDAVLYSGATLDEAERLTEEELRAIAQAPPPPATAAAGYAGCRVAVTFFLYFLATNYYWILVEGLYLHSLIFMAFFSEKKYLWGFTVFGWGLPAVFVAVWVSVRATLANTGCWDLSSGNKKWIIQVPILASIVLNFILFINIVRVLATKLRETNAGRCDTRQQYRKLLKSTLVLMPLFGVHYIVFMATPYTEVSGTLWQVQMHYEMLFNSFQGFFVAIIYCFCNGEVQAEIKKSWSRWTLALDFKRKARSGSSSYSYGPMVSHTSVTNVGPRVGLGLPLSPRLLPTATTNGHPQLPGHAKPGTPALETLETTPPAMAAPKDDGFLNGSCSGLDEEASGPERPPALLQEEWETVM

[8] = test system: PTHR1; assay: PTHR1 cAMP washout assay; assay type: cell-based; conditions: 10 nM agonist for 20 min, then PTHR1 antagonist PTH(7-34) introduced
[9] = biological target: T3, PTHR1-RLuc8 (UniProt Q03431 27-593); assay: FRET or BRET
T3 sequence (looked up): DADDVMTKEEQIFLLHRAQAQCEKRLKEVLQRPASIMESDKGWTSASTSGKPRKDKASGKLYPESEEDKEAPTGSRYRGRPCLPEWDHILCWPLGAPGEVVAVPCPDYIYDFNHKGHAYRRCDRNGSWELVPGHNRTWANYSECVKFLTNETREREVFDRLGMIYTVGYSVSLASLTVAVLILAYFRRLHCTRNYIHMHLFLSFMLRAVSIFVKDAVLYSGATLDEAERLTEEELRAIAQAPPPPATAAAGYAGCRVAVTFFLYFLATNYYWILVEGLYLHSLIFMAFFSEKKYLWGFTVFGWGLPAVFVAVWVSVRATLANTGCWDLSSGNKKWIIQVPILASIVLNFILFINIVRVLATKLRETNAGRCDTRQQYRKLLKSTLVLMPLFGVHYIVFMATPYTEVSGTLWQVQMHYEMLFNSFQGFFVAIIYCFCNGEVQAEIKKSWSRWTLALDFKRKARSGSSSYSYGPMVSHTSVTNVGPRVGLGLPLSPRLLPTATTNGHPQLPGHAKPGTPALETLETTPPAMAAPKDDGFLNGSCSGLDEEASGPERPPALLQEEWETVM

Sequence of PTHR2 (P49190 25-550, species assumed): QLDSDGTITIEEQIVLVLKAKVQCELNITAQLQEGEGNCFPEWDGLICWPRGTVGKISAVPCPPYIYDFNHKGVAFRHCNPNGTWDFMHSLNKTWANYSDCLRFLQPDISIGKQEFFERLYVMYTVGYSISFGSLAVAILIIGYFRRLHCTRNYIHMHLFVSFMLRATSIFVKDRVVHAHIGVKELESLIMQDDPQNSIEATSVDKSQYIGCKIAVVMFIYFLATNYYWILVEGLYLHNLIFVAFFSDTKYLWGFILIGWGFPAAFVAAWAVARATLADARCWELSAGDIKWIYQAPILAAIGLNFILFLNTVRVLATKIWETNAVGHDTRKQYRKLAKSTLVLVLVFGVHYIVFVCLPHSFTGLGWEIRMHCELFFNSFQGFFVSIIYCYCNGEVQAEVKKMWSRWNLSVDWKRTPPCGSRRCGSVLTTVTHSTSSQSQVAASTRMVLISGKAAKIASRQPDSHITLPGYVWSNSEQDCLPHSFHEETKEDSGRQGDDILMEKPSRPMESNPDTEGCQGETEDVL

PTHR1 cAMP production, % Max [1]: 102% | IC50 [2]: 0.022 µM
Molecule: PTH(1-34) (peptide)

EC50 [3]: 0.00251 µM | PTHR1 cAMP Production % Max ([3]; maximal response normalized against PTH(1-34), 4 independent experiments, ± SEM): 116 ± 6% | EC50 [4]: 0.0316 µM | PTHR2 cAMP Production % Max ([4]; maximal response normalized against PTH(1-34), ≥4 independent experiments, ± SEM): 76 ± 3% | EC50 [5]: 0.1 µM | PTHR1 β-arrestin-1 Recruitment % Max ([5]; normalized against PTH(1-34), ≥4 independent experiments, ± SEM): 27 ± 3% | EC50 [6]: 0.1 µM | PTHR1 β-arrestin-2 Recruitment % Max ([6]; normalized against PTH(1-34), ≥3 independent experiments, ± SEM): 21 ± 4% | IC50 [7]: 0.126 µM
Molecule: CC[C@H](C)[C@H](NC(=O)[C@H](CCC(=O)O)NC(=O)[C@H](CO)NC(=O)[C@@H](NC(=O)[C@@H](N)CO)C(C)C)C(=O)N[C@@H](CCC(N)=O)C(=O)N[C@@H](CC(C)C)C(=O)N[C@@H](CCSC)C(=O)N[C@@H](Cc1c[nH]cn1)C(=O)N[C@@H](CC(N)=O)CC(=O)N[C@H](CCC(=O)N[C@@H](CCCCN)C(=O)N[C@@H](Cc1c[nH]cn1)C(=O)N[C@@H](CC(C)C)C(=O)N[C@@H](CC(N)=O)C(=O)N[C@@H](CO)C(=O)N[C@@H](CCSC)C(=O)N[C@@H](CCC(=O)O)C(=O)N[C@@H](CCCNC(=N)N)C(=O)N[C@H](C(=O)N[C@@H](CCC(=O)O)C(=O)N[C@@H](Cc1c[nH]c2ccccc12)C(=O)N[C@@H](CC(C)C)C(=O)N[C@@H](CCCNC(=N)N)C(=O)N[C@@H](CCCCN)C(=O)N[C@@H](CCCCN)C(=O)N[C@@H](CC(C)C)C(=O)N[C@@H](CCC(N)=O)C(=O)N[C@@H](CC(=O)O)C(=O)N[C@H](C(=O)N[C@@H](Cc1c[nH]cn1)C(=O)N[C@@H](CC(N)=O)C(=O)N[C@@H](Cc1ccccc1)C(N)=O)C(C)C)C(C)C)CC(C)C [Peptide 1] (H-SVSEIQLMH[β3hN][X1]KHLNSMERVEWLRKKLQDVHNF-NH2; N-terminus assumed)
AUC of post-washout PTHR1 cAMP, lower compared to PTH(1-34) [8]: ~ 40%

EC50 of PTH(1-34) for recruitment [9]: 0.0072 µM | EC50 of peptide 1 for recruitment [9]: 0.1 µM | EC50 of peptide 2 for recruitment [9]: 0.19 µM
B1: β-arrestin-1-Venus (natural protein, UniProt P49407 1-418, looked up)
chain: MGDKGTRVFKKASPNGKLTVYLGKRDFVDHIDLVDPVDGVVLVDPEYLKERRVYVTLTCAFRYGREDLDVLGLTFRKDLFVANVQSFPPAPEDKKPLTRLQERLIKKLGEHAYPFTFEIPPNLPCSVTLQPGPEDTGKACGVDYEVKAFCAENLEEKIHKRNSVRLVIRKVQYAPERPGPQPTAETTRQFLMSDKPLHLEASLDKEIYYHGEPISVNVHVTNNTNKTVKKIKISVRQYADICLFNTAQYKCPVAMEEADDTVAPSSTFCKVYTLTPFLANNREKRGLALDGKLKHEDTNLASSTLLREGANREILGIIVSYKVKVKLVVSRGGLLGDLASSDVAVELPFTLMHPKPKEEPPHREVPENETPVDTNLIELDTNDDDIVFEDFARQRLKGMKDDKEEEEDGTGSPQLNNR
